What was measured:
Type in all cases: biochemical
JAK1 = JAK1 (Homo sapiens (Human), UniProt P23458); experiment: JAK1 IC50 by the method of Assay A at 1 mM ATP
JAK2 = JAK2 (Homo sapiens (Human), UniProt O60674); experiment: JAK2 versus JAK1 (Assay A at 1 mM ATP); conditions: ratio JAK2/JAK1, Assay A at 1 mM ATP
PI3Kδ = PI3Kδ (Homo sapiens (Human), UniProt O00329); experiment: Example A2: PI3K Enzyme Assay ([γ-33P]ATP filter plate); conditions: assay of Example A2
Method: PI3K isoforms α, β, δ and γ are purchased from Millipore (Bedford, Mass.).
The kinase reactions are conducted in clear-bottom 96-well plate from Thermo Fisher Scientific in a final volume of 24 μL. Inhibitors are first diluted serially in DMSO and added to the plate wells before the addition of other reaction components. The final concentration of DMSO in the assay is 0.5%. […] The reaction mixture is prepared containing 50 μM PIP2, kinase and varying concentration of inhibitors. […] Reactions are incubated for 180 minutes and terminated by the addition of 100 μL of 1 M potassium phosphate pH 8.0, 30 mM EDTA quench buffer. A 100 μL aliquot of the reaction solution are then transferred to 96-well Millipore MultiScreen IP 0.45 μm PVDF filter plate (The filter plate is prewetted with 200 μL 100% ethanol, distilled water, and 1 M potassium phosphate pH 8.0, respectively). […] After drying by aspiration and blotting, the plate is air dried in an incubator at 37° C. overnight. Packard TopCount adapter (Millipore) is then attached to the plate followed with addition of 120 μL Microscint 20 scintillation cocktail (Perkin Elmer) in each well. After the plate sealing, the radioactivity of the product is determined by scintillation counting on Topcount (Perkin-Elmer). […]

PI3K = PI3K inhibition according to at least one assay described herein

Sequence of PI3Kδ (O00329 whole entry, species assumed, canonical isoform): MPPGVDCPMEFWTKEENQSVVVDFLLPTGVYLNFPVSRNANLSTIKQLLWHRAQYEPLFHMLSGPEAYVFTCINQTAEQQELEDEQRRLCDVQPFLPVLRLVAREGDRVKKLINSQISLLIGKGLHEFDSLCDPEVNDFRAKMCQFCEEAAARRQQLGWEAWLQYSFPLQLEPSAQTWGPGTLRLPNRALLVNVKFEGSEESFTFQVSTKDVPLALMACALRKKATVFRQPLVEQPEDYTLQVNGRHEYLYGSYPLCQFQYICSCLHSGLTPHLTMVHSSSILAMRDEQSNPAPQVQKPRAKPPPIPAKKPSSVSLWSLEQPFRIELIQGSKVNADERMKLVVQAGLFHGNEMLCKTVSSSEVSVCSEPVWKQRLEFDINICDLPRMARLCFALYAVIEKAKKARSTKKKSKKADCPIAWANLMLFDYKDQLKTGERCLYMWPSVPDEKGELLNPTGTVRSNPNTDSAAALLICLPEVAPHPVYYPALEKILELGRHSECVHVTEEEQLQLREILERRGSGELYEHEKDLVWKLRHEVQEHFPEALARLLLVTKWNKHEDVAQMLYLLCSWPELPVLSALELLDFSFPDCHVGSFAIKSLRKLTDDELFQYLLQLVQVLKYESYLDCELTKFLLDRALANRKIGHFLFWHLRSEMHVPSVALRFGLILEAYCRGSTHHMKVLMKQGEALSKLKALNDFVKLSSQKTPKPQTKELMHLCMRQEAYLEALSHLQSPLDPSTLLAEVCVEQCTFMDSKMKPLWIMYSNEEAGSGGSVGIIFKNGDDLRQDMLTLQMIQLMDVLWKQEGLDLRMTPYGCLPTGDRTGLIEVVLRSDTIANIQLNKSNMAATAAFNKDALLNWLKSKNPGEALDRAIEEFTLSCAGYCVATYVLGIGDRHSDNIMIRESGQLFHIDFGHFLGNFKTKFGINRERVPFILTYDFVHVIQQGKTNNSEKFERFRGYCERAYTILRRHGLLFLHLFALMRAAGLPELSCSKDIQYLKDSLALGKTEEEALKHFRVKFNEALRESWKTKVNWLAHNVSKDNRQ
Sequence of PI3Kδ (P27986 whole entry partner, species assumed, canonical isoform): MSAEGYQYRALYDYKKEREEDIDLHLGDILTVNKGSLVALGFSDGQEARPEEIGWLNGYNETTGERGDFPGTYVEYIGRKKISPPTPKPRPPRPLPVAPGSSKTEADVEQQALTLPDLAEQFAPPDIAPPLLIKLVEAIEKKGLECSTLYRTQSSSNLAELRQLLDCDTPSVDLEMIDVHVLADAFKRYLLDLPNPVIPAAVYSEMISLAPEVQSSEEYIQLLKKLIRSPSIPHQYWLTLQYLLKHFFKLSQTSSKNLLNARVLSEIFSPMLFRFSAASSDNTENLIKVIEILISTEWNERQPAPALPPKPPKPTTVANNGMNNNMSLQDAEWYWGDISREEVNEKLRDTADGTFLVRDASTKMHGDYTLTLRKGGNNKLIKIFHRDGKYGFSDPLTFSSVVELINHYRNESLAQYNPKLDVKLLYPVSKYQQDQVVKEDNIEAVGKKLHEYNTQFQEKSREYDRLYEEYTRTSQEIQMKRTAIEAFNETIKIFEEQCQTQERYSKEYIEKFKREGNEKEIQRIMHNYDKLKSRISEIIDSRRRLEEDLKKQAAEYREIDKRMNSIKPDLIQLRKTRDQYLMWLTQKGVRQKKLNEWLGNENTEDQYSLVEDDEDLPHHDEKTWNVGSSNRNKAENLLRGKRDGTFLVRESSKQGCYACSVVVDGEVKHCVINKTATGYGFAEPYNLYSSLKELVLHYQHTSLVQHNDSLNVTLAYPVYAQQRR
Sequence of JAK1 (P23458 whole entry, species assumed): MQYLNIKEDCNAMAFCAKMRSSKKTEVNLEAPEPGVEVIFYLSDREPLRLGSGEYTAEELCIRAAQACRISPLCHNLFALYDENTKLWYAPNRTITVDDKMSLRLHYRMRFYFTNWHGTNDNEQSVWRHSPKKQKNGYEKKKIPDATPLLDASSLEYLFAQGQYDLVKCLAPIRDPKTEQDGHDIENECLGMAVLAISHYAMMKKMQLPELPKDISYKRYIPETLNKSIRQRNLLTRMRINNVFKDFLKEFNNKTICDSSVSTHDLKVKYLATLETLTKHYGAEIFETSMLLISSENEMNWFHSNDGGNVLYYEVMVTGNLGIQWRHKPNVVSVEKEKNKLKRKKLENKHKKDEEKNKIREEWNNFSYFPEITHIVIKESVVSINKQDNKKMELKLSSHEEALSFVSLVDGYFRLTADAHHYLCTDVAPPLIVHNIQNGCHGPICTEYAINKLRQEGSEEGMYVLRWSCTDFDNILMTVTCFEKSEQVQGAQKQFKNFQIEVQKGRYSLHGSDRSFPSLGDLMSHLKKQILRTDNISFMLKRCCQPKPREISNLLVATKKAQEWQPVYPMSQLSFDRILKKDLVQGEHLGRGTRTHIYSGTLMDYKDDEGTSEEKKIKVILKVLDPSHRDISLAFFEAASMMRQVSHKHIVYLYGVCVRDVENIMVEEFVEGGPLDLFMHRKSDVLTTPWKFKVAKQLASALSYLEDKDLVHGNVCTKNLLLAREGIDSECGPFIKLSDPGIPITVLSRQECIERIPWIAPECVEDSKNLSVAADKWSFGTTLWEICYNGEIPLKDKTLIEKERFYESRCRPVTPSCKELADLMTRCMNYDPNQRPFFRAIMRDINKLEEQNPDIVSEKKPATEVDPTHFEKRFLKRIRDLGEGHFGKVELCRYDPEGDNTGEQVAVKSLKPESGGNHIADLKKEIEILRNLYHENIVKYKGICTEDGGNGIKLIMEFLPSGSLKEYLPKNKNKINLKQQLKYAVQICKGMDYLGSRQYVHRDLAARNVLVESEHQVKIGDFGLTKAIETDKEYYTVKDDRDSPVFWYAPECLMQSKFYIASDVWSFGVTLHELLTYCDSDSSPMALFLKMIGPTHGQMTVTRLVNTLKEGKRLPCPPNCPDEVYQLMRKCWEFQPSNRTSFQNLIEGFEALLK
Sequence of JAK2 (O60674 whole entry, species assumed): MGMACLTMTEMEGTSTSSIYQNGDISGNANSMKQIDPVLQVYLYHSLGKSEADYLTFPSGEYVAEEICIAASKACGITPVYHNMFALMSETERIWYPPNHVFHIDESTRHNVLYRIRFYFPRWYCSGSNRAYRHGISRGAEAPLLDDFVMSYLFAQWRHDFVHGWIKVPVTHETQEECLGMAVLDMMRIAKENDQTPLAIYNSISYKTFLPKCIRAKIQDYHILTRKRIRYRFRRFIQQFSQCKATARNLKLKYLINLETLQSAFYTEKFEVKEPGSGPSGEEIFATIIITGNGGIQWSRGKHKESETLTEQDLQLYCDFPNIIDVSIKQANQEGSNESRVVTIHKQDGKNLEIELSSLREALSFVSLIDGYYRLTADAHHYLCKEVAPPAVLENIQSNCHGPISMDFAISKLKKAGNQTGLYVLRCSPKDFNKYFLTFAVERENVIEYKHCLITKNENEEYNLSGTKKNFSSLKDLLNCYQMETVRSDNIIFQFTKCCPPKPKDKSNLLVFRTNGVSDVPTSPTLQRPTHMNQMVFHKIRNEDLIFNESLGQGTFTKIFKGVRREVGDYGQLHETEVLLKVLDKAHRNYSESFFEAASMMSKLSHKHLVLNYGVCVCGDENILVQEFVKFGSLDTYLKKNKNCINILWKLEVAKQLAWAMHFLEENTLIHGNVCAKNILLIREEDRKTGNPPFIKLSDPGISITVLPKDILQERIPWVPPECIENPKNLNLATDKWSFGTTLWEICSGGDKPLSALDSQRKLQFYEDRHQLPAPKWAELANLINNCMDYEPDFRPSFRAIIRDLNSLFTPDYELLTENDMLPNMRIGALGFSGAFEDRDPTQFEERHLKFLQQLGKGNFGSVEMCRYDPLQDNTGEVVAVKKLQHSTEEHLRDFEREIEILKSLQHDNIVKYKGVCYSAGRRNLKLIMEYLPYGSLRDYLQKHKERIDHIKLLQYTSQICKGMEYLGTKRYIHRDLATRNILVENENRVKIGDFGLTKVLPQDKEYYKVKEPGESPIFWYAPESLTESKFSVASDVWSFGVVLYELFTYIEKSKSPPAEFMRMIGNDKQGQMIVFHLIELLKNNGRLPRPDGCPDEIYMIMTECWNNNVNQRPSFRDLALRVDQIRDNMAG

selectivity for PI3Kδ (PI3Kδ)	SMILES	IC50 (JAK1) [nM]	JAK2/JAK1 (JAK2)	PI3K inhibition (PI3K)
–	C[C@@H](O)c1nc2cnc3ccsc3c2n1[C@H]1CC[C@H](CC#N)OC1 [Compound 1, ((2R,5S)-5-{2-[(1R)-1-hydroxyethyl]-1H-imidazo[4,5-d]thieno[3,2-b]pyridin-1-yl}tetrahydro-2H-pyran-2-yl)acetonitrile]	< 100	>10	–
selective inhibitor for PI3Kδ	CCOc1c([C@H](C)n2nc(C)c3c(N)ncnc32)cc(Cl)c(F)c1[C@@H]1CNC(=O)C1.Cl [(R)-4-(3-((S)-1-(4-amino-3-methyl-1H-pyrazolo[3,4-d]pyrimidin-1-yl)ethyl)-5-chloro-2-ethoxy-6-fluorophenyl)pyrrolidin-2-one hydrochloride]	–	–	found to be PI3K inhibitors
